Measured values reported in patent US20080267894A1, “Acerola Fruit-Derived Pectin and Its Application” (NICHIREI FOODS INC., priority 2005, published 2008).

Key:
[1] = Anti-oxidation activity (rhodan-iron method) using linoleic acid, suppression of auto-oxidation; type: biochemical; settings: for Absorbance, auto-oxidation of linoleic acid: specimen 0.02% (W/W)
Method: Linoleic acid is unsaturated fatty acid that is contained richly also in human body. The unsaturated fatty acid is characterized by being auto-oxidized when it is allowed to stand, so as to be lipid peroxide. In this experiment, linoleic acid is mixed with a sample, the mixture is allowed to stand at 40° C., and then antioxidative activities are evaluated based on increases in the amounts of lipid oxides purified from linoleic acid. […] The resulting mixture was put into a brown screw cap bottle, so that 10 ml of a reaction solution was prepared. When a specimen was a water-insoluble component, the specimen was dissolved in the above 99.5% ethanol, so that a reaction solution was prepared. When a specimen was a water-soluble component, the specimen was dissolved in the above distilled water, so that a reaction solution was prepared. In addition, in this test method, the term “specimen concentration” indicates a specimen concentration in 2 ml of 99.5% ethanol or 2 ml of distilled water. Therefore, the final concentration of each specimen in each reaction solution was one fifth of the predetermined concentration. Furthermore, regarding specimens positive for antioxidative activities, similar procedures were performed for BHA so that it is contained in appropriate amounts in reaction solutions. Positive control specimens were thus prepared. A control used herein was prepared by adding 2 ml of 99.5% ethanol and 2 ml of distilled water alone to the reaction solution. Such reaction solution stored in the dark at 40° C. was used for the main test and such reaction solution stored at 4° C. was used for a blank test. Test substances were sampled with time and then measured as described below. Tests were conducted for 2 or more weeks. 0.1 ml of 2×10^2M ferrous chloride (3.5% hydrochloric acid solution) was added to the mixture of 0.1 ml of a test substance, 9.7 ml of 75% ethanol, and 0.1 ml of 30% ammonium rhodanate aqueous solution. At precisely 3 minutes after addition, absorbance was measured at 500 nm. Absorbance was similarly measured in a blank test: Δ absorbance=[absorbance in main test]−[absorbance in blank test]. The higher the absorbance, the higher the amount of oxidized lipids. […] Furthermore, when oxidation of a sample is initiated, the absorbance increases. After the absorbance reaches a peak, the absorbance decreases as the amount of a sample to be oxidized decreases. It can be said that the sooner the absorbance reaches a peak, the weaker the anti-oxidation activity. Furthermore, anti-oxidation activities of the samples were compared in terms of oxidation ratio (%). Oxidation ratio (%) was obtained by the following formula using the oxidation (absorbance) of the control as 100%. Oxidation ratio (%)=([Δ absorbance of sample]/[Δ absorbance of control])×100 [Formula 1] It can be said that the higher the oxidation ratio (%), the lower the anti-oxidation activity.

[2] = test system: tyrosinase; test: Effect of inhibiting tyrosinase (skin-whitening activity); type: biochemical, mushroom
Method: A test concerning activity of inhibiting tyrosinase, which is an enzyme that generates a melanin pigment, was conducted by the following procedure. • (1) *4 mL of an L-DOPA aqueous solution, **4 mL each of samples diluted at different concentrations, and 2 mL of a 0.2 M phosphate buffer (pH 6.8) were mixed. The mixture was heated in a thermostatic bath at 37° C. […] Changes in absorbance were automatically measured for over 20 seconds from the start to the end at intervals of 0.1 second. The rise velocity of absorbance between 4 seconds and 10 seconds after the start of measurement was calculated. *Tyrosinase solution: Solution obtained by dissolving tyrosinase (SIGMA) derived from a mushroom in a 0.2 M phosphate buffer (pH 6.8) at a concentration of 300 units/mL and then conducting filtering using a 0.2 μm filter • (3) To obtain a blank value, measurement was performed using a 0.2 M phosphate buffer instead of a sample and then tyrosinase-inhibiting activity was calculated by the equation below. Furthermore, a substance that could not be dissolved in a phosphate buffer was dissolved in dimethyl sulfoxide (DMSO), diluted with a phosphate buffer, and then measured. […]
Tyrosinase activity inhibition ratio (%)=100−((absorbance rise velocity of sample)/(absorbance rise velocity of blank))×100

[3] = DPPH radical scavenging activity test (Test method 1.2); type: biochemical; settings: Table 7
Method: Antioxidative activities were evaluated using an ethanol solution of diphenyl-p-picrylhydradil (DPPH), which is a stable radical. 1200 μl of ethanol and 400 μl of a specimen (adjusted to any concentration) were mixed with 1600 μl of a 250 mM acetate buffer (pH=5.5), followed by preincubation at 30° C. for 5 minutes. 800 μl of a 500 μM DPPH/ethanol solution was added to the solution and mixed therewith, and the resultant was then allowed to stand at 30° C. for 30 minutes. Absorbance was measured at 517 nm. A similar procedure was performed also for α-tocopherol and then the result was used as a positive control. The control used herein was prepared by performing a similar procedure using a solvent instead of a sample solution. Radical scavenging ratio was calculated by the following equation using the thus measured absorbances.
Scavenging ratio (%)=(1−[absorbance of sample]/[absorbance of control])×100
The above measurement for finding scavenging ratios was performed by varying stepwise the concentration of a sample in a solution. The concentration of a sample solution leading to a 50% DPPH radical scavenging ratio was found and designated the concentration required for scavenging 50% of the DPPH radicals. Thus, it can be said that the lower the numerical value, the higher the radical scavenging ability.

[4] = test system: animal cells; settings: cited from earlier work
[5] = test system: brown guinea pigs; test: Skin-whitening test: suppression of pigmentation after UV irradiation; type: in vivo; settings: oral, dose of ascorbic acid 300 mg/kg animal weight/day, 42 days; UVB on days 0, 2, 4; observed days 7 to 42
Method: The effect of suppressing pigmentation after UV irradiation was examined using brown guinea pigs (SPF). The brown guinea pigs are of an animal species that undergoes pigmentation because of UV irradiation in a manner similar to humans and of a line that has been clearly maintained. Six guinea pigs were used for each group in this test. To promote pigmentation, UV (UVB) irradiation was performed from a distance of 40 cm using five SE lamps (wavelength between 250 nm and 350 nm, […] Corporation) installed in an UV irradiation apparatus (Y-798-II, Orion Electric Co., Ltd.). […] This time was designated the time for UV irradiation in this test. Each irradiation site was a 2 cm×2 cm square area located on either the left or right across the midline of the back of a guinea pig that had been sheared using electric clippers and then shaved using an electric shaver. […] Pigmentation was measured as follows. Before the initial administration (before irradiation) on the day of the initiation of administration and on days 7, 14, 21, 28, 35, and 42 after initial administration, L value (lightness) of irradiated sites were measured using a colorimeter (CR-300, Minolta Co., Ltd.) and then the ΔL value (L value on the day of observation-L value before irradiation) was found. […]

[6] = test system: animal cells; settings: animal cell test; cited from earlier work
[7] = Experiment 1, 1 day of storage at 40° C.
[8] = Experiment 1, 4 days of storage at 40° C.
[9] = Experiment 1, 5 days of storage at 40° C.
[10] = Experiment 1, 8 days of storage at 40° C.
[11] = Experiment 1, 11 days of storage at 40° C.
[12] = Experiment 1, 15 days of storage at 40° C.

Which results are given for 3(2)-t-Butyl-4-hydroxyanisole [BHA]?
Absorbance, auto-oxidation of linoleic acid [1, 7]: 0.0000; Absorbance, auto-oxidation of linoleic acid [1, 8]: 0.0105; Absorbance, auto-oxidation of linoleic acid [1, 9]: 0.0111; Absorbance, auto-oxidation of linoleic acid [1, 10]: 0.0313; Absorbance, auto-oxidation of linoleic acid [1, 11]: 0.0559; Absorbance, auto-oxidation of linoleic acid [1, 12]: 0.0752; Absorbance, auto-oxidation of linoleic acid ([1]; Experiment 2, 1 day of storage at 40° C.): 0.0001; Absorbance, auto-oxidation of linoleic acid ([1]; Experiment 2, 4 days of storage at 40° C.): 0.0088; Absorbance, auto-oxidation of linoleic acid ([1]; Experiment 2, 5 days of storage at 40° C.): 0.0121; Absorbance, auto-oxidation of linoleic acid ([1]; Experiment 2, 8 days of storage at 40° C.): 0.0269; Absorbance, auto-oxidation of linoleic acid ([1]; Experiment 2, 14 days of storage at 40° C.): 0.0609; Absorbance, auto-oxidation of linoleic acid ([1]; Experiment 2, 18 days of storage at 40° C.): 0.0866

For `OCC1OC2O[C@@H]3[C@@H](c4ccc(O)c(O)c4)Oc4cc(O)cc(O)c4[C@@H]3OC2C(O)C1O` (stereo partly shown) [Aceronidin], which “skin-whitening effect (effect of inhibiting tyrosinase), in words” value [2] is on record?
The value was “almost no skin-whitening effect (effect of inhibiting tyrosinase)”.

What about the Tyrosinase-inhibiting activity ([2]; L-DOPA substrate, 37° C., sample concentration not given) of the same compound?
Its Tyrosinase-inhibiting activity is 3.1%.

What about the “50% radical scavenging activity concentration” value [3] of the same compound?
Its value is 80 ppm.

With `O=C[C@H](O)[C@@H](O)[C@@H](O)[C@H](O)C(=O)O` [galacturonic acid] as the compound, how does the “Effect of suppressing melanin pigment generation” value [4] read?
The value was “has not been confirmed”.

With `O=C1O[C@H]([C@@H](O)CO)C(O)=C1O` [vitamin C, ascorbic acid] as the compound, how does the “Antioxidative activities for lipids (FIG. 15), in words” value ([1]; specimen concentration 0.02% (W/W)) read?
Its value is “no antioxidative activities at all”.

And the “Antioxidative activities for lipids (FIG. 15), in words” value ([1]; specimen concentration 0.04% (W/W))?
Its value is “no antioxidative activities at all”.

What about the “ΔL value of UV-irradiated skin (pigmentation), FIG. 21, in words” value [5] of the same compound?
Its value is “measurement values were almost the same”.

With (±)-α-Tocopherol as the compound, how does the “Absorbance, auto-oxidation of linoleic acid” value (from here on “Absorbance, auto-oxidation”) [1, 7] read?
The value was 0.0195.

What about the “Absorbance, auto-oxidation” value [1, 8] of the same compound?
Its value is 0.0827.

What about the “Absorbance, auto-oxidation” value [1, 9] of the same compound?
Its value is 0.1014.

What about the “Absorbance, auto-oxidation” value [1, 10] of the same compound?
The value was 0.1326.

And the “Absorbance, auto-oxidation” value [1, 11]?
Its value is 0.1551.

And the “Absorbance, auto-oxidation” value [1, 12]?
The value was 0.1796.

What about the “50% radical scavenging activity concentration” value [3] of the same compound?
Its value is 127 ppm.

With oligogalacturonic acid as the compound, how does the “Effect of suppressing melanin production” value [6] read?
Its value is “exerted an effect of suppressing melanin production”.

With polygalacturonic acid as the compound, how does the “Effect of suppressing melanin pigment generation” value [4] read?
The value was “has not been confirmed”.
